Measured values from PubChem BioAssay (NCI).
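How tested: cells in 96-well plates exposed to compound for 48 hours at five concentrations. At the TGI there is no net growth.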

What was measured:
Test in all cases: NCI tumour cell line growth inhibition, 48 h
M14 melanoma = system: M14 melanoma
DU-145 prostate = system: DU-145 prostate
HS 578T breast = system: HS 578T breast
MDA-N = system: MDA-N
ACHN renal = system: ACHN renal
A549 NSCLC = system: A549 NSCLC
SR leukemia = system: SR leukemia
T-47D breast = system: T-47D breast
PC-3 prostate = system: PC-3 prostate
TK-10 renal = system: TK-10 renal
SN12C renal = system: SN12C renal
NCI-H226 lung = system: NCI-H226 lung
P388/ADR leukemia = system: P388/ADR leukemia
HOP-18 NSCLC = system: HOP-18 NSCLC
A498 renal = system: A498 renal
SN12K1 renal = system: SN12K1 renal
M19-MEL melanoma = system: M19-MEL melanoma
KM20L2 colon = system: KM20L2 colon
XF 498 CNS = system: XF 498 CNS
HOP-62 NSCLC = system: HOP-62 NSCLC

Compound | TGI (M14 melanoma) | TGI (DU-145 prostate) | TGI (HS 578T breast) | TGI (MDA-N) | TGI (ACHN renal) | TGI (A549 NSCLC) | TGI (SR leukemia) | TGI (T-47D breast) | TGI (PC-3 prostate) | TGI (TK-10 renal) | TGI (SN12C renal) | TGI (NCI-H226 lung) | TGI (P388/ADR leukemia) | TGI (HOP-18 NSCLC) | TGI (A498 renal) | TGI (SN12K1 renal) | TGI (M19-MEL melanoma) | TGI (KM20L2 colon) | TGI (XF 498 CNS) | TGI (HOP-62 NSCLC)
CCOC(=O)C1=NN(c2ccccc2)C2=CC(C)=NN(C)C(=S)N21 | > 100 µM | > 100 µM | > 100 µM | > 100 µM | > 100 µM | > 100 µM | > 100 µM | > 100 µM | > 100 µM | > 100 µM | > 100 µM | – | – | – | – | – | – | – | – | –
CC[C@](C)(O)C(=O)O[C@H]1C(=O)O[C@@H]2C[C@H]3C(C)=C[C@H](O)[C@@H](O)[C@]3(C)[C@H]3[C@@]4(O)OC[C@]32[C@@H]1[C@@H](C)[C@H]4O | – | – | – | – | – | 292 µM | – | – | – | – | 310 µM | 81.2 µM | 325 µM | 298 µM | 71.5 µM | 32.1 µM | 45.5 µM | 189 µM | 66.5 µM | 157 µM
